From patent US12466822B2, “Heterocyclic compounds as immunomodulators” (Incyte Corporation, priority 2016, dated 2025)

Molecular target: T1, PD-1/PD-L1 protein/protein interaction (recombinant human PD-L1 protein (19-238), recombinant human PD-1 protein (25-167)) (Homo sapiens, UniProt Q9NZQ7)
T1 construct: Recombinant human PD-L1 protein (19-238) with a His-tag at the C-terminus; purchased AcroBiosystems PD1-H5229 (PD-L1-His); PD1-H5257 (PD-1-Fc)
Assay: PD-1/PD-L1 Homogeneous Time-Resolved Fluorescence (HTRF) Binding Assay
Settings: 25° C., PBS buffer (pH 7.4), 40 minutes preincubation with inhibitors
Outline: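 Fc-tagged human PD-1 (25-167) and His-tagged PD-L1 (19-238), listed as […] and 10 nM final, preincubated 40 min with inhibitors in PBS pH 7.4, 0.05% Tween-20, 0.1% BSA, 1% DMSO, 25 °C. Eu anti-IgG/APC anti-His added, 60 min, 665/620 nm HTRF ratio; IC50 fitted from percent control activity.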

T1 sequence (Q9NZQ7 19-238): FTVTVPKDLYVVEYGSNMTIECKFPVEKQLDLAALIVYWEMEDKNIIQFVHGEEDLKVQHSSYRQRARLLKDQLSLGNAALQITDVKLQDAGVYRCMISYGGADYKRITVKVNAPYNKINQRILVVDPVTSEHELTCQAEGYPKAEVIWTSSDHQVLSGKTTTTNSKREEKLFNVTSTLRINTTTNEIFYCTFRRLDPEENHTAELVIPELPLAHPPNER

Structure (SMILES)	IC50 [nM]
Cc1c(Nc2nccc3cc(CN4CC[C@@H](O)C4)cnc23)cccc1-c1cccc(-c2nc3c(o2)CN(C(=O)CN(C)C)C3)c1C [Example 37, (R)-2-(dimethylamino)-1-(2-(3′-((3-((3-hydroxypyrrolidin-1-yl)methyl)-1,7-naphthyridin-8-yl)amino)-2,2′-dimethyl-[1,1′-biphenyl]-3-yl)-4,6-dihydro-5H-pyrrolo[3,4-d]oxazol-5-yl)ethan-1-one]	≤ 10
Cc1c(Nc2nccc3cc(CN4CC[C@@H](C(=O)O)C4)cnc23)cccc1-c1cccc(NC(=O)c2ccc(CN3CC[C@@H](O)C3)cn2)c1Cl [Example 7, (R)-1-((8-((2′-chloro-3′-(5-(((R)-3-hydroxypyrrolidin-1-yl)methyl)picolinamido)-2-methyl-[1,1′-biphenyl]-3-yl)amino)-1,7-naphthyridin-3-yl)methyl)pyrrolidine-3-carboxylic acid]	≤ 10
Cc1c(Nc2nccc3cc(CN4CCCC4)cnc23)cccc1-c1cccc(NC(=O)c2nc3c(n2C)CCN(C[C@H]2CC[C@@H](C(=O)O)CC2)C3)c1Cl [Example 49, cis-4-((2-(2-chloro-2′-methyl-3′-(3-(pyrrolidin-1-ylmethyl)-1,7-naphthyridin-8-ylamino)biphenyl-3-ylcarbamoyl)-1-methyl-6,7-dihydro-1H-imidazo[4,5-c]pyridin-5(4H)-yl)methyl)cyclohexanecarboxylic acid]	≤ 10
Cc1c(COc2cc(OCc3cncc(C#N)c3)c(CN3CCCC[C@H]3C(=O)O)cc2Cl)cccc1-c1cccc(Nc2nccc3cc(CN4CC[C@@H](O)C4)cnc23)c1C [Example 43, (S)-1-(5-chloro-2-((5-cyanopyridin-3-yl)methoxy)-4-((3′-((3-(((R)-3-hydroxypyrrolidin-1-yl)methyl)-1,7-naphthyridin-8-yl)amino)-2,2′-dimethyl-[1,1′-biphenyl]-3-yl)methoxy)benzyl)piperidine-2-carboxylic acid]	≤ 10
Cc1c(Nc2nccc3cc(CN4CC[C@@H](O)C4)cnc23)cccc1-c1cccc(Nc2ncnc3cc(CNCC(C)(C)O)cnc23)c1C [Example 30, (R)-1-((8-(3′-(7-((2-hydroxy-2-methylpropylamino)methyl)pyrido[3,2-d]pyrimidin-4-ylamino)-2,2′-dimethylbiphenyl-3-ylamino)-1,7-naphthyridin-3-yl)methyl)pyrrolidin-3-ol]	≤ 10
Cc1c(Nc2nccc3cc(CNCCO)cnc23)cccc1-c1cccc(NC(=O)c2ccc(CNCCO)cn2)c1F [Example 4, N-(2-fluoro-3′-((3-(((2-hydroxyethyl)amino)methyl)-1,7-naphthyridin-8-yl)amino)-2′-methyl-[1,1′-biphenyl]-3-yl)-5-(((2-hydroxyethyl)amino)methyl)picolinamide]	≤ 10
Cc1c(Nc2nccc3cc(CN4CC[C@@H](O)C4)cnc23)cccc1-c1cccc(-c2nc3c(o2)CN(C(=O)CN2CC(C(=O)O)C2)C3)c1C [Example 39, (R)-1-(2-(2-(3′-((3-((3-hydroxypyrrolidin-1-yl)methyl)-1,7-naphthyridin-8-yl)amino)-2,2′-dimethyl-[1,1′-biphenyl]-3-yl)-4,6-dihydro-5H-pyrrolo[3,4-d]oxazol-5-yl)-2-oxoethyl)azetidine-3-carboxylic acid]	≤ 10
Cc1c(Nc2nccc3cc(CN[C@H]4CCC[C@@H]4O)cnc23)cccc1-c1cccc(NC(=O)c2nc3c(n2C)CCN(C[C@H]2CC[C@H](C(=O)O)CC2)C3)c1Cl [Example 51, trans-4-((2-(2-chloro-3′-(3-(((1S,2S)-2-hydroxycyclopentylamino)methyl)-1,7-naphthyridin-8-ylamino)-2′-methylbiphenyl-3-ylcarbamoyl)-1-methyl-6,7-dihydro-1H-imidazo[4,5-c]pyridin-5(4H)-yl)methyl)cyclohexanecarboxylic acid]	≤ 10
Cn1cc(CN2CC[C@@H](O)C2)cc(C(=O)Nc2cccc(-c3cccc(Nc4nccc5cc(CN6CC(C(=O)O)C6)cnc45)c3Cl)c2Cl)c1=O [Example 16, (R)-1-((8-(2,2′-dichloro-3′-(5-((3-hydroxypyrrolidin-1-yl)methyl)-1-methyl-2-oxo-1,2-dihydropyridine-3-carboxamido)biphenyl-3-ylamino)-1,7-naphthyridin-3-yl)methyl)azetidine-3-carboxylic acid]	≤ 10

Other lines, results leading:

IC50 [nM]	Structure (SMILES)
≤ 10	Cc1c(Nc2nccc3cc(CN4CC[C@@H](C(=O)O)C4)cnc23)cccc1-c1cccc(-c2nc3c(s2)CN(C(=O)CN(C)C)C3)c1C [Example 85, (R)-1-((8-((3′-(5-(dimethylglycyl)-5,6-dihydro-4H-pyrrolo[3,4-d]thiazol-2-yl)-2,2′-dimethyl-[1,1′-biphenyl]-3-yl)amino)-1,7-naphthyridin-3-yl)methyl)pyrrolidine-3-carboxylic acid]
≤ 10	Cc1c(Nc2nccc3cc(CN4CC[C@@](C)(O)C4)cnc23)cccc1-c1cccc(NC(=O)c2nc3c(n2C)CCN(C[C@H]2CC[C@@H](C(=O)O)CC2)C3)c1Cl [Example 56, cis 4-((2-(2-chloro-3′-(3-(((R)-3-hydroxy-3-methylpyrrolidin-1-yl)methyl)-1,7-naphthyridin-8-ylamino)-2′-methylbiphenyl-3-ylcarbamoyl)-1-methyl-6,7-dihydro-1H-imidazo[4,5-c]pyridin-5(4H)-yl)methyl)cyclohexanecarboxylic acid]
≤ 10	Cn1c(C(=O)Nc2cccc(-c3cccc(Nc4nccc5cc(CN6CC[C@@H](O)C6)cnc45)c3Cl)c2Cl)nc2c1CCN(CC[C@H]1CC[C@H](C(=O)O)CC1)C2 [Example 65, Trans-4-(2-(2-(2,2′-dichloro-3′-(3-(((R)-3-hydroxypyrrolidin-1-yl)methyl)-1,7-naphthyridin-8-ylamino)biphenyl-3-ylcarbamoyl)-1-methyl-6,7-dihydro-1H-imidazo[4,5-c]pyridin-5(4H)-yl)ethyl)cyclohexanecarboxylic acid]
≤ 10	Cc1c(NC(=O)c2nc3c(n2C)CCN(C2CCC(C)(C(=O)O)CC2)C3)cccc1-c1cccc(Nc2nccc3cc(CN4CC[C@@H](O)C4)cnc23)c1C (single isomer, unassigned) [Example 62-peak1]
≤ 10	Cc1c(-c2nc3c(s2)CN(C(=O)CN(C)C)C3)cccc1-c1cccc(Nc2nccc3cc(CN4CC5CC4CC5C(=O)O)cnc23)c1Cl (stereo not drawn) [Example 92, 2-((8-((2-chloro-3′-(5-(dimethylglycyl)-5,6-dihydro-4H-pyrrolo[3,4-d]thiazol-2-yl)-2′-methyl-[1,1′-biphenyl]-3-yl)amino)-1,7-naphthyridin-3-yl)methyl)-2-azabicyclo[2.2.1]heptane-5-carboxylic acid]
≤ 10	Cc1c(Nc2nccc3cc(CN4CC[C@@H](C(=O)O)C4)cnc23)cccc1-c1cccc(Nc2nccc3cc(C4CCCN4)cnc23)c1C (stereo partly drawn) [Example 71, (3R)-1-((8-(2,2′-dimethyl-3′-(3-(pyrrolidin-2-yl)-1,7-naphthyridin-8-ylamino)biphenyl-3-ylamino)-1,7-naphthyridin-3-yl)methyl)pyrrolidine-3-carboxylic acid]
≤ 10	Cc1c(NC(=O)c2nc3c(n2C)CCN(C2CCC(C(=O)O)CC2)C3)cccc1-c1cccc(Nc2nccc3cc(CN4CC[C@@H](O)C4)cnc23)c1C (single isomer, unassigned) [Example 64-peak2]
≤ 10	Cc1c(Nc2nccc3cc(CN4CC[C@@H](O)C4)cnc23)cccc1-c1cccc(Nc2nccc3cc(CN4CC[C@@H](C(=O)O)C4)cnc23)c1Cl [Example 79, (R)-1-((8-((2-chloro-3′-((3-(((R)-3-hydroxypyrrolidin-1-yl)methyl)-1,7-naphthyridin-8-yl)amino)-2′-methyl-[1,1′-biphenyl]-3-yl)amino)-1,7-naphthyridin-3-yl)methyl)pyrrolidine-3-carboxylic acid]
≤ 10	Cc1c(Nc2nccc3cc(CN4CC[C@@H](O)C4)cnc23)cccc1-c1cccc(Nc2nccc3cc(CNCCC(=O)O)cnc23)c1Cl [Example 81, (R)-3-(((8-((2-chloro-3′-((3-((3-hydroxypyrrolidin-1-yl)methyl)-1,7-naphthyridin-8-yl)amino)-2′-methyl-[1,1′-biphenyl]-3-yl)amino)-1,7-naphthyridin-3-yl)methyl)amino)propanoic acid]
≤ 10	Cc1c(-c2nc3c(s2)CN(C(=O)CN(C)C)C3)cccc1-c1cccc(Nc2nccc3cc(CN4CC[C@H](CC(=O)O)C4)cnc23)c1Cl [Example 91, (R)-2-(1-((8-((2-chloro-3′-(5-(dimethylglycyl)-5,6-dihydro-4H-pyrrolo[3,4-d]thiazol-2-yl)-2′-methyl-[1,1′-biphenyl]-3-yl)amino)-1,7-naphthyridin-3-yl)methyl)pyrrolidin-3-yl)acetic acid]
≤ 10	Cc1c(NC(=O)c2nc3c(n2C)CCN(CC[C@H]2CC[C@H](C(=O)O)CC2)C3)cccc1-c1cccc(Nc2nccc3cc(CN4CC[C@@H](O)C4)cnc23)c1C [Example 63, trans-4-(2-(2-(3′-(3-(((R)-3-hydroxypyrrolidin-1-yl)methyl)-1,7-naphthyridin-8-ylamino)-2,2′-dimethylbiphenyl-3-ylcarbamoyl)-1-methyl-6,7-dihydro-1H-imidazo[4,5-c]pyridin-5(4H)-yl)ethyl)cyclohexanecarboxylic acid]
≤ 10	Cc1c(Nc2nccc3cc(CN4CC(C(=O)O)C4)cnc23)cccc1-c1cccc(Nc2nccc3cc(CN4CC[C@@H](O)C4)cnc23)c1Cl [Example 75, (R)-1-((8-((2′-chloro-3′-((3-((3-hydroxypyrrolidin-1-yl)methyl)-1,7-naphthyridin-8-yl)amino)-2-methyl-[1,1′-biphenyl]-3-yl)amino)-1,7-naphthyridin-3-yl)methyl)azetidine-3-carboxylic acid]
